Reference: patent US20240158446A1, “CYCLIC COMPOUND HAVING SELECTIVE INHIBITORY ACTION ON KRAS OVER HRAS AND NRAS” (CHUGAI SEIYAKU KABUSHIKI KAISHA, priority 2021, published 2024)
Where two headings read alike, the source gives them in different places. *1 amine or outer side, *2 acyl side, *3 side chain or, on linkers, in order; H or OH if unused. Where a SMILES comes first, the peptide text is derived from it. Bridges are numbered along the chain shown (N, C = ends). [ ]: non-standard residue; d: D form. The star is where a group is joined. hPhe(3-Cl-4-CF3) = N[C@@H](CCc1ccc(C(F)(F)F)c(Cl)c1)C(=O)O; X5 = C=CCN([C@@H](Cc1ccc(C(F)(F)F)cc1)C(=O)[*:2])[*:1]; NPrPhe(4-CF3) = CCCN[C@@H](Cc1ccc(C(F)(F)F)cc1)C(=O)O; NMeGly(cPent) = CN[C@H](C(=O)O)C1CCCC1; Pro(4,4-Me2) = CC1(C)CN[C@H](C(=O)O)C1; NMeD = CN[C@@H](CC(=O)O)C(=O)O; NMeL = CN[C@@H](CC(C)C)C(=O)O; Morpholide = C1CN(*)CCO1; NMeA = CN[C@@H](C)C(=O)O; Ac5c = NC1(C(=O)O)CCCC1; Aze = O=C(O)[C@@H]1CCN1; Sar = CNCC(=O)O

Experiments:
[1] = target: GDP-bound KRAS wild-type protein (Homo sapiens, UniProt P01116); experiment: Binding to KRAS by surface plasmon resonance (SPR), Single Cycle Kinetics; settings: GDP-bound KRAS wild-type protein, read-out: KRAS KD
Sequence of GDP-bound KRAS wild-type protein (P01116 whole entry): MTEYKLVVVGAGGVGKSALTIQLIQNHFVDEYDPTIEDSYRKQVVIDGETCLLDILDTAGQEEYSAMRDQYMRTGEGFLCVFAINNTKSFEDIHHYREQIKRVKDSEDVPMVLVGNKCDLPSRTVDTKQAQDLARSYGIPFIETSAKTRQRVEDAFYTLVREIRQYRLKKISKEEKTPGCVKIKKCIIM

[2] = target: GDP-bound NRAS wild-type protein (Homo sapiens, UniProt P01111); experiment: Binding to NRAS by surface plasmon resonance (SPR), Single Cycle Kinetics; settings: SPR, GDP-bound NRAS wild-type protein vs GDP-bound KRAS wild-type protein
Sequence of GDP-bound NRAS wild-type protein (P01111 whole entry): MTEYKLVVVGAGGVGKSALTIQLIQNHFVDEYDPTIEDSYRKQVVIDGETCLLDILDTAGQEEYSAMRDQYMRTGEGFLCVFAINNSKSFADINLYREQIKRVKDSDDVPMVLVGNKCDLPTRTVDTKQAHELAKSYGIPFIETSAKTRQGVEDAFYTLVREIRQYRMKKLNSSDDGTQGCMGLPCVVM

[3] = target: GDP-bound HRAS wild-type protein (Homo sapiens, UniProt P01112); experiment: Binding to HRAS by surface plasmon resonance (SPR), Single Cycle Kinetics; settings: SPR, GDP-bound HRAS wild-type protein vs GDP-bound KRAS wild-type protein
Sequence of GDP-bound HRAS wild-type protein (P01112 whole entry): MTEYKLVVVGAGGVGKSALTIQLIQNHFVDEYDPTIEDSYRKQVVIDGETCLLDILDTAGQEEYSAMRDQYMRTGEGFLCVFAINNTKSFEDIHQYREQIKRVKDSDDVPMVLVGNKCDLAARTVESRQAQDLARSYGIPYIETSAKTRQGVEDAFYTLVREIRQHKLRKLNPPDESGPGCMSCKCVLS

[4] = SPR Single Cycle Kinetics, 1:1 binding model
[5] = SPR, Single Cycle Kinetics, 1:1 binding model

## CCCN1C(=O)[C@@H]2CCN2C(=O)CN(C)C(=O)[C@H]([C@@H](C)CC)NC(=O)[C@H](CC(C)C)N(C)C(=O)C[C@@H](C(=O)N2CCOCC2)N(C)C(=O)[C@H](C2CCCC2)N(C)C(=O)C2(CCCC2)NC(=O)[C@@H]2CC(C)(C)CN2C(=O)[C@H](CCc2ccc(C(F)(F)F)c(Cl)c2)NC(=O)CN(C)C(=O)[C@@H]1Cc1ccc(C(F)(F)F)cc1 [PP0456] ([NMeL]I[Sar][Aze][NPrPhe(4-CF3)][Sar][hPhe(3-Cl-4-CF3)][Pro(4,4-Me2)][Ac5c][NMeGly(cPent)][NMeD]-Morpholide; lactam N-11)
[1]; [4]
  Kd: 0.07 nM
[2]
  NRAS/KRAS (ratio of KD value with respect to NRAS to KD value with respect to KRAS): C (A compound having a KD ratio of 0.1 or more and less than 3 is denoted as C)
[3]
  HRAS/KRAS (ratio of KD value with respect to HRAS to KD value with respect to KRAS): C (A compound having a KD ratio of 0.1 or more and less than 3 is denoted as C)

## CCO[C@@H]1C[C@H]2C(=O)NC3(CC(C)(C)C3)C(=O)N(C)[C@@H](C(CC)CC)C(=O)N(C)[C@H](C(=O)N(C)C)CC(=O)N(C)[C@@H](C)C(=O)N[C@@H]([C@@H](C)CC)C(=O)N(C)CC(=O)N(C)[C@H]3C/C=C\CCN(C3=O)[C@@H](Cc3ccc(C)cc3)C(=O)N(C)CC(=O)N[C@@H](CCc3ccc(C(F)(F)F)c(Cl)c3)C(=O)N2C1 [PP2150]
[1]; SPR, Single Cycle Kinetics
  Kd: 3.8 nM
[2]
  NRAS/KRAS (ratio of KD value for NRAS to KD value for KRAS): AA (a compound having 20 or more is denoted as AA)
[3]
  HRAS/KRAS (ratio of KD value for HRAS to KD value for KRAS): A (a compound having 10 or more and less than 20 is denoted as A)

## CC[C@H](C)[C@@H]1NC(=O)[C@H](CC(C)C)N(C)C(=O)C[C@@H](C(=O)N2CCOCC2)N(C)C(=O)[C@H](C2CCCC2)N(C)C(=O)C2(CCCC2)NC(=O)[C@@H]2CCCN2C(=O)[C@H](CCc2ccc(C(F)(F)F)c(Cl)c2)NC(=O)CN(C)C(=O)[C@H](Cc2ccc(OC(F)(F)F)cc2)N2C/C=C\CC[C@@H](C2=O)N(C)C(=O)CN(C)C1=O [PP0610]
[1]; [4]
  Kd: 49 nM
[2]
  NRAS/KRAS (ratio of KD value with respect to NRAS to KD value with respect to KRAS): B (a compound having 3 or more and less than 10 is denoted as B)
[3]
  HRAS/KRAS (ratio of KD value with respect to HRAS to KD value with respect to KRAS): B (a compound having 3 or more and less than 10 is denoted as B)

## CCO[C@@H]1C[C@H]2C(=O)NC3(CCC3)C(=O)N(C)[C@@H](C3CCCC3)C(=O)N(C)[C@H](C(=O)N(C)C)CC(=O)N(C)[C@@H](CC(F)F)C(=O)N[C@@H]([C@@H](C)CC)C(=O)N(C)CC(=O)N(C)[C@H]3C/C=C\CCN(C3=O)[C@@H](Cc3ccc(C(F)(F)F)cc3)C(=O)N(C)CC(=O)N[C@@H](CCc3cc(F)c(C(F)(F)F)c(F)c3)C(=O)N2C1 [PP1120, (2S,8S,12R,14S,20S,23S,27S,30S,36S,38Z)-20-cyclopentyl-27-(2,2-difluoroethyl)-8-[2-[3,5-difluoro-4-(trifluoromethyl)phenyl]ethyl]-12-ethoxy-N,N,4,19,22,26,32,35-octamethyl-30-[(1S)-1-methylpropyl]-3,6,9,15,18,21,25,28,31,34,42-undecaoxo-2-[[4-(trifluoromethyl)phenyl]methyl]spiro[1,4,7,10,16,19,22,26,29,32,35-undecazatricyclo[34.5.1.0^10,14]dotetracont-38-ene-17,1′-cyclobutane]-23-carboxamide]
[1]; SPR, Single Cycle Kinetics
  Kd: 0.042 nM
[2]
  NRAS/KRAS (ratio of KD value for NRAS to KD value for KRAS): A (a compound having 10 or more and less than 20 is denoted as A)
[3]
  HRAS/KRAS (ratio of KD value for HRAS to KD value for KRAS): A (a compound having 10 or more and less than 20 is denoted as A)

## CCO[C@@H]1C[C@H]2C(=O)NC3(CCC3)C(=O)N(C)[C@@H](C3CCCC3)C(=O)N(CCC3CCCC3)[C@H](C(=O)N(C)C)CC(=O)N(C)[C@@H](CC(C)C)C(=O)N[C@@H]([C@@H](C)CC)C(=O)N(C)CC(=O)N(C)[C@H]3CCCCCN(C3=O)[C@@H](Cc3ccc(F)cc3)C(=O)N(C)CC(=O)N[C@@H](CCc3ccc(C(F)(F)F)c(Cl)c3)C(=O)N2C1 [PP0976]
[1]; SPR, Single Cycle Kinetics
  Kd: 4.8 nM
[2]
  NRAS/KRAS (ratio of KD value for NRAS to KD value for KRAS): B (a compound having 3 or more and less than 10 is denoted as B)
[3]
  HRAS/KRAS (ratio of KD value for HRAS to KD value for KRAS): B (a compound having 3 or more and less than 10 is denoted as B)

## CC[C@H](C)[C@@H]1NC(=O)[C@H](COC)N(C)C(=O)C[C@@H](C(=O)N(C)C)N(C)C(=O)[C@H](C2CCCC2)N(C)C(=O)C2(CC(C)(C)C2)NC(=O)[C@@H]2C[C@@H](OC(C)C)CN2C(=O)[C@H](CCc2cc(F)c(C(F)(F)F)c(F)c2)NC(=O)CN(C)C(=O)[C@H](CC2CCCCC2)N2CC/C=C\C[C@@H](C2=O)N(C)C(=O)CN(C2CC2)C1=O [PP2511]
[1]; SPR, Single Cycle Kinetics
  Kd: 0.95 nM
[2]
  NRAS/KRAS (ratio of KD value for NRAS to KD value for KRAS): A (a compound having 10 or more and less than 20 is denoted as A)
[3]
  HRAS/KRAS (ratio of KD value for HRAS to KD value for KRAS): A (a compound having 10 or more and less than 20 is denoted as A)

## C=CC[C@H]1C(=O)N[C@@H]([C@@H](C)CC)C(=O)N(C)CC(=O)N(C)[C@H]2CCCCN(C2=O)[C@@H](Cc2ccc(C(F)(F)F)cc2)C(=O)N(C)CC(=O)N[C@@H](CCc2cc(F)c(C(F)(F)F)c(F)c2)C(=O)N2C[C@H](OCC)C[C@H]2C(=O)N[C@](C)(CC=C)C(=O)N(C)[C@@H](C2CCCC2)C(=O)N(C)[C@H](C(=O)N2CCOCC2)CC(=O)N1C [PP0874]
[1]; SPR, Single Cycle Kinetics
  Kd: 0.1 nM
[2]
  NRAS/KRAS (ratio of KD value for NRAS to KD value for KRAS): C (A compound having a KD ratio of 0.1 or more and less than 3 is denoted as C)
[3]
  HRAS/KRAS (ratio of KD value for HRAS to KD value for KRAS): B (a compound having 3 or more and less than 10 is denoted as B)

## C=CCN1C(=O)[C@@H]2CCN2C(=O)[C@H](C)N(C)C(=O)[C@H]([C@@H](C)CC)NC(=O)[C@H](CC(C)C)N(C)C(=O)C[C@@H](C(=O)N2CCOCC2)N(C)C(=O)[C@H](C2CCCC2)N(C)C(=O)C2(CCCC2)NC(=O)[C@@H]2CCCN2C(=O)[C@H](CCc2ccc(C(F)(F)F)c(Cl)c2)NC(=O)CN(C)C(=O)[C@@H]1Cc1ccc(C(F)(F)F)cc1 [PP0114] ([NMeL]I[NMeA][Aze][X5][Sar][hPhe(3-Cl-4-CF3)]P[Ac5c][NMeGly(cPent)][NMeD]-Morpholide; lactam N-11)
[1]; [4]
  Kd: 0.16 nM
[2]
  NRAS/KRAS (ratio of KD value for NRAS to KD value for KRAS): C (A compound having a KD ratio of 0.1 or more and less than 3 is denoted as C)
[3]
  HRAS/KRAS (ratio of KD value for HRAS to KD value for KRAS): C (A compound having a KD ratio of 0.1 or more and less than 3 is denoted as C)

## CCO[C@@H]1C[C@H]2C(=O)NC3(CCC3)C(=O)N(C)[C@@H](C3CCCC3)C(=O)N(C)[C@H](C3CCCCC3)CC(=O)N(C)[C@@H](COC)C(=O)N[C@@H]([C@@H](C)CC)C(=O)N(C)CC(=O)N(C)[C@H]3C/C=C\CCN(C3=O)[C@@H](Cc3ccc(C(F)(F)F)cc3)C(=O)N(C)CC(=O)N[C@@H](CCc3cc(F)c(C(F)(F)F)c(F)c3)C(=O)N2C1 [PP1584]
[1]; [5]
  Kd: 0.56 nM
[2]; KD ratio class
  NRAS/KRAS (ratio of KD value for NRAS to KD value for KRAS): B (a compound having 3 or more and less than 10 is denoted as B)
[3]; KD ratio class
  HRAS/KRAS (ratio of KD value for HRAS to KD value for KRAS): B (a compound having 3 or more and less than 10 is denoted as B)

## CC[C@H](C)[C@@H]1NC(=O)[C@H](CC2CC2)N(C)C(=O)C[C@@H](C(=O)N(C)C)N(C)C(=O)[C@H](C2CCCC2)N(C)C(=O)C2(CCC2)NC(=O)[C@@H]2CC(F)(F)CN2C(=O)[C@H](CCc2cc(F)c(C(F)(F)F)c(F)c2)NC(=O)CN(C)C(=O)[C@H](Cc2ccc(C(F)(F)F)cc2)N2CC/C=C\C[C@@H](C2=O)N(C)C(=O)CN(C)C1=O [PP1500, (2S,8S,14S,20S,23S,27S,30S,36S,38Z)-20-cyclopentyl-27-(cyclopropylmethyl)-8-[2-[3,5-difluoro-4-(trifluoromethyl)phenyl]ethyl]-12,12-difluoro-N,N,4,19,22,26,32,35-octamethyl-30-[(1S)-1-methylpropyl]-3,6,9,15,18,21,25,28,31,34,42-undecaoxo-2-[[4-(trifluoromethyl)phenyl]methyl]spiro[1,4,7,10,16,19,22,26,29,32,35-undecazatricyclo[34.5.1.0^10,14]dotetracont-38-ene-17,1′-cyclobutane]-23-carboxamide]
[1]; [5]
  Kd: 0.039 nM
[2]; KD ratio class
  NRAS/KRAS (ratio of KD value for NRAS to KD value for KRAS): A (a compound having 10 or more and less than 20 is denoted as A)
[3]; KD ratio class
  HRAS/KRAS (ratio of KD value for HRAS to KD value for KRAS): A (a compound having 10 or more and less than 20 is denoted as A)

## CCO[C@@H]1C[C@H]2C(=O)NC3(CCC3)C(=O)N(C)[C@@H](C3CCCC3)C(=O)N(C)[C@H](C(=O)N(C)CC)CC(=O)N(C)[C@@H](CC)C(=O)N[C@@H]([C@@H](C)CC)C(=O)N(C)CC(=O)N(C)[C@H]3C/C=C\CCN(C3=O)[C@@H](CC3CCC(F)(F)CC3)C(=O)N(C)CC(=O)N[C@@H](CCc3cc(F)c(C(F)(F)F)c(F)c3)C(=O)N2C1 [PP1553, (2S,8S,12R,14S,20S,23S,27S,30S,36S,38Z)-20-cyclopentyl-2-[(4,4-difluorocyclohexyl)methyl]-8-[2-[3,5-difluoro-4-(trifluoromethyl)phenyl]ethyl]-12-ethoxy-N,27-diethyl-N,4,19,22,26,32,35-heptamethyl-30-[(1S)-1-methylpropyl]-3,6,9,15,18,21,25,28,31,34,42-undecaoxo-spiro[1,4,7,10,16,19,22,26,29,32,35-undecazatricyclo[34.5.1.0^10,14]dotetracont-38-ene-17,1′-cyclobutane]-23-carboxamide]
[1]; [5]
  Kd: 0.13 nM
[2]; KD ratio class
  NRAS/KRAS (ratio of KD value for NRAS to KD value for KRAS): A (a compound having 10 or more and less than 20 is denoted as A)
[3]; KD ratio class
  HRAS/KRAS (ratio of KD value for HRAS to KD value for KRAS): A (a compound having 10 or more and less than 20 is denoted as A)
